{"source": "patent US20110093959A1", "about": "“CRYPTOTIS PARVA SCREENING MODEL FOR ANTIEMETIC POTENTIAL” (priority 2008, published 2011)", "system": "5-HT, 5-HIAA, dopamine and HVA tissue levels", "assay": "Monoamine and metabolite tissue levels after CIS (HPLC-ECD)", "assay_type": "in vivo, Cryptotis parva", "settings": "for increase in brainstem 5-HT tissue level vs vehicle: CIS 10 mg/kg i.p.; for frontal cortex 5-HIAA level: not significantly different from vehicle", "procedure": "These parameters were used in our neurochemical studies. Prior to experimentation, shrews were habituated to the laboratory environment as described for the behavioral studies. […] Subgroups of each treatment were sacrificed by rapid decapitation at either 2 hr or 33 hr post-injection.\nBrains were rapidly removed and dissected on an ice-cold petri dish, the frontal cortex and brainstem were immediately frozen on dry-ice and stored at […] until analysis. Likewise, each gut was rapidly removed and washed with ice-cold saline three times prior to sectioning into succeeding 2 cm portions starting from the end of the stomach (duodenal and jejunal sections, respectively), followed by rapid freezing as described above. Each frontal cortex, brainstem and intestinal sample was respectively homogenized (tissue tearer, setting 5 sec for 15 sec) in 1 ml, 2 ml, or 3 ml ice-cold 0.2 M perchloric acid respectively containing 0.3 M ethylenediamine-tetraacetic acid disodium (EDTA). A 0.1 ml portion of each homogenate was removed for protein analysis. The protein concentration was determined by the use of BCA protein assay kit (Pierce; Rockford, Ill.). Then, homogenates were centrifuged at 40,000 g for 30 min at 4° C. to precipitate protein. The supernatant was filtered through a 0.2 μm nylon filter in a microcentrifuge tube at 1,500 g for 10 min at 4° C. A 10 μl aliquot of each filtered supernatant was assayed for the presence of monoamines and their metabolites.\nMonoamines and their metabolites were analyzed by high performance liquid chromatography with electrochemical detection (HPLC-ECD) based upon our established method (Darmani et al., 2003). Separation of 5-HT, dopamine and their corresponding metabolites (5-HIAA and HVA) from other electroactive compounds was achieved on a 10 cm×3.2 mm RP-C18 column (ODS 3 um packing; BAS Inc., W. Lafayette, Ind.) and a mobile phase containing 0.15 M chloroacetic acid, 0.12 M sodium hydroxide, 0.18 mM ethylenediamine-tetraacetic acid disodium (EDTA), 1.1 mM sodium octane sulfonic acid and 5% acetonitrile. The monoamines and their metabolites were separated and measured through the cited column via a Shumadzu L-ECD-6A detector, connected to a Shimadzu LC-10 AD pump and a C-R7Ae chromatopac integrator (Kyoto, Japan). The glassy carbon working electrode was set at a potential of 650 mV relative to an Ag/AgCl reference electrode. The detection limit for dopamine and 5-HT were 2 and 5 pg respectively, based on a signal to noise ratio of 3:1. Peak heights of unknowns were compared to the mean peak heights of a 200 pg standard solution (containing 5-HT, dopamine, 5-HIAA and HVA) which were run daily after every fifth tissue supernatant sample. The intestinal HVA concentrations could not be determined due to an unknown interfering peak in the gut tissue eluates.\nWhen a significant dose and exposure interaction was found, then simple effects at a particular emesis phase was tested via a one-way ANOVA. Neurochemical data were initially analyzed by two-way analysis of variance (ANOVA) with drug dose (0 mg/kg and 10 mg/kg) and exposure time (2 hr and 33 hr) as factors. […] For each statistical test, a P value of<0.05 was necessary to achieve statistical significance.", "key": {"[1]": {"settings": "CIS 0 and 10 mg/kg, 2 and 33 hour"}}, "note": "“And” between values parts separate entries of the source, which are not always exact repeats. Identical values can stand only once.", "data": [{"smiles": "N.N.[Cl][Pt][Cl]", "note": "[CIS, cis-platinum(II)diamine dichloride]", "values": [{"measurement": "brainstem dopamine levels", "setting": "[1]", "value": "no overall significant effect"}, {"measurement": "duodenum dopamine levels", "setting": "[1]", "value": "no overall significant effect"}, {"measurement": "frontal cortex serotonin levels", "setting": "[1]", "value": "no significant overall effect"}, {"measurement": "duodenal tissue concentration of 5-HIAA", "setting": "CIS 10 mg/kg", "value": "not significantly altered"}, {"measurement": "increase in jejunal dopamine concentration", "setting": "CIS 10 mg/kg at 33 hour vs 0 mg/kg control at 2 hour", "value": 121, "unit": "%"}, {"measurement": "increase in jejunal dopamine concentration", "setting": "CIS 10 mg/kg at 33 hour vs 0 mg/kg control at 33 hour", "value": 171, "unit": "%"}, {"measurement": "frontal cortex HVA at 33 hour less than at 2 hour", "setting": "CIS 10 mg/kg dose", "value": 32.4, "unit": "%"}, {"measurement": "jejunal 5-HT at 2 hour smaller than at 33 hours", "setting": "CIS 10 mg/kg dose", "value": 114.5, "unit": "%"}, {"measurement": "brainstem 5-HT level at 33 hour greater than at 2 hour", "setting": "CIS 10 mg/kg group", "value": 33.9, "unit": "%"}, {"measurement": "brainstem HVA at 33 hour greater than at 2 hour", "setting": "CIS 10 mg/kg group", "value": 37, "unit": "%"}, {"measurement": "increase in brainstem 5-HT tissue level vs vehicle", "setting": "2 hour", "value": 68.2, "unit": "%"}, {"measurement": "increase in brainstem 5-HT tissue level vs vehicle", "setting": "33 hour", "value": 25, "unit": "%"}, {"measurement": "duodenal 5-HT concentrations", "setting": "CIS 10 mg/kg, 2 and 33 hour", "value": "not significantly altered"}, {"measurement": "frontal cortex dopamine tissue level vs control", "setting": "CIS 10 mg/kg, 2 hour", "value": "significant increase"}, {"measurement": "increase in brainstem 5-HIAA level vs vehicle", "setting": "CIS 10 mg/kg, 2 hour", "value": 43.8, "unit": "%"}, {"measurement": "increase in brainstem HVA levels vs control", "setting": "CIS 10 mg/kg, 2 hour", "value": 65.5, "unit": "%"}, {"measurement": "increase in jejunal 5-HIAA concentration vs control", "setting": "CIS 10 mg/kg, 2 hour", "value": 32.4, "unit": "%"}, {"measurement": "reduction of jejunal 5-HT tissue concentration vs control", "setting": "CIS 10 mg/kg, 2 hour", "value": 49.1, "unit": "%"}, {"measurement": "frontal cortex 5-HIAA level", "setting": "CIS 10 mg/kg, 2 hour", "value": "1.1±0.07"}, {"measurement": "decrease in frontal cortex HVA concentration vs vehicle", "setting": "CIS 10 mg/kg, 33 hour", "value": 35.9, "unit": "%"}, {"measurement": "increase in brainstem 5-HIAA level vs vehicle", "setting": "CIS 10 mg/kg, 33 hour", "value": 26.7, "unit": "%"}, {"measurement": "increase of jejunal 5-HT tissue concentration vs control", "setting": "CIS 10 mg/kg, 33 hour", "value": "~50% and 41.8%"}, {"measurement": "frontal cortex 5-HIAA level", "setting": "CIS 10 mg/kg, 33 hour", "value": "0.91±0.11"}, {"measurement": "increase in brainstem HVA levels vs control", "setting": "CIS 10 mg/kg, 33 hours", "value": 27.7, "unit": "%"}, {"measurement": "duodenal 5-HT at 33 hours greater than at 2 hour", "setting": "CIS-treated animals", "value": 48.5, "unit": "%"}, {"measurement": "brainstem 5-HIAA at 33 hour greater than at 2 hour", "setting": "CIS-treated group", "value": 49.2, "unit": "%"}]}]}
